Test results reported in publication PMC12067128, “Macrocyclization: Enhancing Drug-like Properties of Discoidin Domain Receptor Kinase Inhibitors” (ACS Medicinal Chemistry Letters, 2025).
Where two headings read alike, the source gives them in different places.

Assay: pH-metric determination of pKa values (SiriusT3)
Assay type: physicochemical
Settings: methanol/ISA water cosolvent mixtures (0.15 M KCl), MeOH:ISA water cosolvent, extrapolated to 0% cosolvent, 25 °C, n=4
Experimental: pH-metric determination of pKa values
Experimental pKa was determined by pH-metric approaches using SiriusT3 (PIon Inc. Ltd, Forrest Row, UK) instrument which integrates a dispenser module equipped with precision dispensers, 0.5 mL syringes, a multi-tip capillary bundle, a titrator module, a microstirrer with variable speed, a combined double junction Ag/AgCl pH and reference electrode and a fibre optics dip probe connected to a deuterium UV pulsed light source and a photodiode array (PDA) detector, acquiring spectra in the 200-700 nm wavelength range. SiriusT3 Control software v 1.1.3.0 was employed for acquisition, while Sirius T3 Refine software v. 1.1.3.0 was used for data analysis. The glass microelectrode was standardized by means of a strong acid-strong base titration (0.5N HCl vs. 0.5N KOH) in the pH range 2.0-12.0 at fixed temperature (25±0.5°C) and I = 0.15 M for KCl addition, in N2 atmosphere. […]
The original method was described in a previous paper.e Briefly, a HPLC Thermo Fisher Scientific Dionex Ultimate 3000 instrument equipped with a Low-Pressure Mixing Gradient Pump LPG-3400 SD, ACC-3000 autosampler with termostatable column compartment, a DAD-3000 RS Detector and Chromeleon Data System Version 7.2.10 was used. […] The dead time, t0, was determined by monitoring the baseline disturbance. […]

## Cn1cc2c3nc(ncc31)Nc1cnn(c1)CCCNCCOc1ccc-2cc1 [Compound 5a]
read-out: pKa (basic), amino group (propan-1-amine)
  pKa: 8.2
read-out: pKa (basic), pyrrolo-pyrimidine moiety
  pKa: 4.35
